Experimental data taken from PubChem BioAssay AID248 (DTP/NCI, 2004).
Several values for one entry are separate records, joined by “and”; a condition that tells them apart may be missing. Identical values can stand only once. Inconclusive results and toxic doses are left out. Rule as the data show it: active = T/C of 150% or more; inactive = T/C below 125%.

Test system: L1210 leukemia ip in BDF1 mice, survival T/C
Assay: NCI In Vivo Anticancer Drug Screen. Data for tumor model L1210 Leukemia (intraperitoneal) in B6D2F1 (BDF1) mice
Details: endpoint: mean survival time, higher = longer survival
Procedure, shortened: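 Mice bearing the transplanted tumor received compound or vehicle. Survival of the treated group was divided by that of the vehicle-treated control group to give the ratio.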

[1] = dose: 100.0 mg/kg/injection, schedule: Q01DX001 (ip), vehicle: Klucel (hydroxypropylcellulose) (HPC)
[2] = dose: 200.0 mg/kg/injection, schedule: Q01DX001 (ip), vehicle: Klucel (hydroxypropylcellulose) (HPC)
[3] = dose: 400.0 mg/kg/injection, schedule: Q01DX001 (ip), vehicle: Klucel (hydroxypropylcellulose) (HPC)
[4] = dose: 100.0 mg/kg/injection, schedule: Q01DX001 (ip), vehicle: saline
[5] = dose: 200.0 mg/kg/injection, schedule: Q01DX001 (ip), vehicle: saline
[6] = dose: 400.0 mg/kg/injection, schedule: Q01DX001 (ip), vehicle: saline
[7] = dose: 100.0 mg/kg/injection, schedule: Q04DX003 (ip), vehicle: Klucel (hydroxypropylcellulose) (HPC)
[8] = dose: 200.0 mg/kg/injection, schedule: Q04DX003 (ip), vehicle: Klucel (hydroxypropylcellulose) (HPC)
[9] = dose: 400.0 mg/kg/injection, schedule: Q04DX003 (ip), vehicle: Klucel (hydroxypropylcellulose) (HPC)
[10] = dose: 100.0 mg/kg/injection, schedule: Q01DX009 (ip), vehicle: Klucel (hydroxypropylcellulose) (HPC)
[11] = dose: 100.0 mg/kg/injection, schedule: Q01DX009 (ip), vehicle: saline with Tween-80

Measured: T/C

Cc1ccc(NN=Nc2ccccc2C#N)cc1
inactive: dose: 50.0 mg/kg/injection, schedule: Q01DX009 (ip), vehicle: saline 92 % of control | dose: 100.0 mg/kg/injection, schedule: Q01DX009 (ip), vehicle: saline 92 % of control | dose: 100.0 mg/kg/injection, schedule: Q04DX003 (ip), vehicle: acetone 110 % of control | dose: 200.0 mg/kg/injection, schedule: Q01DX009 (ip), vehicle: saline 88 % of control | dose: 200.0 mg/kg/injection, schedule: Q04DX003 (ip), vehicle: acetone 100 % of control | dose: 400.0 mg/kg/injection, schedule: Q04DX003 (ip), vehicle: acetone 103 % of control

c1ccc2c(c1)C1CCCCC2c2ccccc21
inactive: [1] 102 % of control | [2] 97 % of control | [3] 100 % of control

O=C(Nc1cccc(C2=NCCN2)c1)Nc1cccc(C2=NCCN2)c1
inactive: dose: 6.0 mg/kg/injection, schedule: Q01DX Z (ip), vehicle: water 104 % of control | dose: 12.0 mg/kg/injection, schedule: Q01DX Z (ip), vehicle: water 101 % of control | dose: 25.0 mg/kg/injection, schedule: Q01DX Z (ip), vehicle: water 97 % of control

Fc1ccc(-n2ncc3c2-c2ccccc2CCC3)cc1
inactive: [4] 108 % of control | [5] 104 % of control | [6] 108 % of control

Cc1ccc(S(=O)(=O)N(CCC(=O)O)Cc2ccccc2)cc1
inactive: dose: 100.0 mg/kg/injection, schedule: Q01DX001 (ip), vehicle: carboxymethylcellulose (CMC) 121 % of control | dose: 200.0 mg/kg/injection, schedule: Q01DX001 (ip), vehicle: carboxymethylcellulose (CMC) 103 % of control | dose: 400.0 mg/kg/injection, schedule: Q01DX001 (ip), vehicle: carboxymethylcellulose (CMC) 108 % of control

C/C(=N/NC(N)=S)c1c(C)[nH]c2ccccc12
inactive: dose: 10.0 mg/kg/injection, schedule: Q01DX001 (ip), vehicle: acetone 96 % of control | dose: 20.0 mg/kg/injection, schedule: Q01DX001 (ip), vehicle: acetone 96 % of control | dose: 40.0 mg/kg/injection, schedule: Q01DX001 (ip), vehicle: acetone 95 % of control

Cc1c(Cl)cccc1NC(=O)OC(C)C
inactive: [7] 106 % of control | [8] 97 % of control | [9] 97 % of control

CCCCCCCCCCCCP(=O)(O)O
inactive: dose: 75.0 mg/kg/injection, schedule: Q01DX001 (ip), vehicle: other 94 % of control | dose: 150.0 mg/kg/injection, schedule: Q01DX001 (ip), vehicle: other 97 % of control

O=[N+]([O-])c1ccc(N/N=C2\Cc3ccccc3Cc3ccccc32)c([N+](=O)[O-])c1
inactive: dose: 50.0 mg/kg/injection, schedule: Q01DX001 (ip), vehicle: Klucel (hydroxypropylcellulose) (HPC) 90 % of control | [1] 98 % of control | [2] 90 % of control

O=c1[nH]nc(N2CCOCC2)c(=O)[nH]1
inactive: [4] 104 % of control | [5] 104 % of control | [6] 96 % of control

CC(C)Nc1ccc(Nc2ccc(NC(C)C)cc2)cc1
inactive: dose: 1.56 mg/kg/injection, schedule: Q04DX003 (ip), vehicle: alcohol 102 % of control | dose: 3.12 mg/kg/injection, schedule: Q01DX009 (ip), vehicle: alcohol 98 % of control | dose: 3.12 mg/kg/injection, schedule: Q04DX003 (ip), vehicle: alcohol 109 % of control | dose: 6.25 mg/kg/injection, schedule: Q01DX009 (ip), vehicle: alcohol 94 % of control | dose: 6.25 mg/kg/injection, schedule: Q04DX003 (ip), vehicle: alcohol 105 % of control | dose: 12.5 mg/kg/injection, schedule: Q01DX009 (ip), vehicle: alcohol 96 % of control | dose: 12.5 mg/kg/injection, schedule: Q04DX003 (ip), vehicle: alcohol 95 % of control | dose: 18.0 mg/kg/injection, schedule: Q01DX009 (ip), vehicle: alcohol 104 % of control

CCC[CH2][Sn]1([CH2]CCC)[O]CC[S]1
inactive: dose: 5.0 mg/kg/injection, schedule: Q01DX001 (ip), vehicle: saline 111 % of control

Cc1c(F)cccc1C(=O)O
inactive: dose: 100.0 mg/kg/injection, schedule: Q01DX009 (ip), vehicle: carboxymethylcellulose (CMC) 101 % of control and 102 % of control | dose: 100.0 mg/kg/injection, schedule: Q04DX002 (ip), vehicle: carboxymethylcellulose (CMC) 100 % of control | dose: 100.0 mg/kg/injection, schedule: Q04DX003 (ip), vehicle: carboxymethylcellulose (CMC) 103 % of control | dose: 200.0 mg/kg/injection, schedule: Q01DX009 (ip), vehicle: carboxymethylcellulose (CMC) 102 % of control and 87 % of control | dose: 200.0 mg/kg/injection, schedule: Q04DX002 (ip), vehicle: carboxymethylcellulose (CMC) 93 % of control and 105 % of control | dose: 200.0 mg/kg/injection, schedule: Q04DX003 (ip), vehicle: carboxymethylcellulose (CMC) 103 % of control | dose: 400.0 mg/kg/injection, schedule: Q01DX009 (ip), vehicle: carboxymethylcellulose (CMC) 97 % of control and 90 % of control | dose: 400.0 mg/kg/injection, schedule: Q04DX002 (ip), vehicle: carboxymethylcellulose (CMC) 93 % of control and 102 % of control | dose: 400.0 mg/kg/injection, schedule: Q04DX003 (ip), vehicle: carboxymethylcellulose (CMC) 101 % of control

Cc1cc(N(CCOS(C)(=O)=O)CCOS(C)(=O)=O)ccc1C=Nc1cccc(Cl)c1
inactive: dose: 20.0 mg/kg/injection, schedule: Q04DX003 (ip), vehicle: Klucel (hydroxypropylcellulose) (HPC) 107 % of control | dose: 40.0 mg/kg/injection, schedule: Q04DX003 (ip), vehicle: Klucel (hydroxypropylcellulose) (HPC) 115 % of control | dose: 80.0 mg/kg/injection, schedule: Q04DX003 (ip), vehicle: Klucel (hydroxypropylcellulose) (HPC) 107 % of control | [7] 120 % of control

N=c1c2cnn(C3OC(CO)C(O)C3O)c2ncn1N (configuration not stated)
inactive: dose: 6.25 mg/kg/injection, schedule: Q01DX009 (ip), vehicle: water 112 % of control | dose: 12.5 mg/kg/injection, schedule: Q01DX009 (ip), vehicle: water 121 % of control

O=C1CSc2cc[nH]c21
inactive: [10] 95 % of control | [7] 100 % of control | [8] 95 % of control | [9] 98 % of control

O=C(COc1ccc([N+](=O)[O-])cc1Cl)Nc1cccc(S(=O)(=O)F)c1
inactive: [7] 98 % of control | [8] 106 % of control | [9] 91 % of control

O=C(Nc1ccccc1C(F)(F)F)Oc1ccc(Cl)cc1Cl
inactive: [11] 103 % of control | dose: 100.0 mg/kg/injection, schedule: Q04DX003 (ip), vehicle: saline with Tween-80 94 % of control | dose: 200.0 mg/kg/injection, schedule: Q01DX009 (ip), vehicle: saline with Tween-80 99 % of control | dose: 200.0 mg/kg/injection, schedule: Q04DX003 (ip), vehicle: saline with Tween-80 102 % of control | dose: 400.0 mg/kg/injection, schedule: Q04DX003 (ip), vehicle: saline with Tween-80 86 % of control

Cc1cc(=O)oc2c(CN3CCCCC3)c(O)ccc12
inactive: dose: 5.0 mg/kg/injection, schedule: Q01DX001 (ip), vehicle: carboxymethylcellulose (CMC) 93 % of control | dose: 10.0 mg/kg/injection, schedule: Q01DX001 (ip), vehicle: carboxymethylcellulose (CMC) 90 % of control | dose: 20.0 mg/kg/injection, schedule: Q01DX001 (ip), vehicle: carboxymethylcellulose (CMC) 104 % of control

O=C1CCC(c2ccccc2)=NN1
inactive: [7] 93 % of control | [8] 95 % of control | [9] 106 % of control

CCOC(=O)CSC(=S)N1CCOCC1
inactive: [1] 94 % of control | [2] 97 % of control | [3] 102 % of control

CCCC(C(=O)O)C1=CCCC1 (configuration not stated)
inactive: [11] 88 % of control | dose: 100.0 mg/kg/injection, schedule: Q04DX003 (ip), vehicle: saline 98 % of control | dose: 200.0 mg/kg/injection, schedule: Q04DX003 (ip), vehicle: saline 103 % of control | dose: 400.0 mg/kg/injection, schedule: Q04DX003 (ip), vehicle: saline 101 % of control

C=CCc1cc(CN2CCOCC2)c(O)c(OC)c1
inactive: [10] 98 % of control | dose: 100.0 mg/kg/injection, schedule: Q04DX002 (ip), vehicle: Klucel (hydroxypropylcellulose) (HPC) 101 % of control and 108 % of control | dose: 200.0 mg/kg/injection, schedule: Q01DX009 (ip), vehicle: Klucel (hydroxypropylcellulose) (HPC) 97 % of control | dose: 200.0 mg/kg/injection, schedule: Q04DX002 (ip), vehicle: Klucel (hydroxypropylcellulose) (HPC) 89 % of control | dose: 400.0 mg/kg/injection, schedule: Q01DX009 (ip), vehicle: Klucel (hydroxypropylcellulose) (HPC) 103 % of control | dose: 400.0 mg/kg/injection, schedule: Q04DX002 (ip), vehicle: Klucel (hydroxypropylcellulose) (HPC) 107 % of control
